In test [1] the test system is intestinal mucosa biopsies from the inflamed regions of the colon. Put plainly: Human biopsy assay (intestinal mucosa biopsies of ulcerative colitis patients). The test is classed as cell-based. As to conditions: 24 hours. On the procedure: Intestinal mucosa biopsies are obtained from the inflamed regions of the colon of IBD patients. […] DMSO control or test compounds at the desired concentration are added to the tissue and incubated for 24 hr in the organ culture chamber. The supernatant is harvested for determination of IL-6, IL-8, IL-1β and TNFα levels by R&D ELISA.

Another test concerns TNBS-induced colitis. As to conditions: for LP inflammation / Ulcer grade: oral gavage BID, conducted over 2 days, mice.
In a further test the target is Syk (Homo sapiens (Human), UniProt P43405). As to the kind of experiment: Syk enzyme inhibition (Z-LYTE FRET). Type of test: biochemical. Summed up:
(§1)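 2 hr RT enzyme + cpd (added solns 4/0.4/0.04/0.004 μg/mL); + FRET peptide (8 μM soln) + ATP soln (c-Src 800 μM, Syk 60 μM), 1 hr; protease development 1 hr; read donor/acceptor emission ratio.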

The next test deals with HT29 cells. Put plainly: IL-1β-induced IL-8 release in HT29 cells. Type of test: cell-based. As to conditions: Homo sapiens, HT-29, read-out: IC50 Values for Inhibition of Cytokine Release HT29 cells IL-8. Here is the method:
HT29 cells, a human colon adenocarcinoma cell line, are plated in a 96 well plate (24 hrs) and pre-treated with compounds at the desired concentration for 2 hours before addition of 5 ng/mL of IL-1β (Abcam) for 24 hours. Supernatants are harvested for IL-8 quantification by Sandwich ELISA (Duo-set, R&D System). The IC50 is determined from the dose response curve.

The target in another test is p38 MAPKα (Homo sapiens (Human), UniProt Q16539). Put plainly: p38 MAPKα enzyme inhibition (Z-LYTE FRET, Method 2). Type of test: biochemical.
Sequence of p38 MAPKα (Q16539 whole entry): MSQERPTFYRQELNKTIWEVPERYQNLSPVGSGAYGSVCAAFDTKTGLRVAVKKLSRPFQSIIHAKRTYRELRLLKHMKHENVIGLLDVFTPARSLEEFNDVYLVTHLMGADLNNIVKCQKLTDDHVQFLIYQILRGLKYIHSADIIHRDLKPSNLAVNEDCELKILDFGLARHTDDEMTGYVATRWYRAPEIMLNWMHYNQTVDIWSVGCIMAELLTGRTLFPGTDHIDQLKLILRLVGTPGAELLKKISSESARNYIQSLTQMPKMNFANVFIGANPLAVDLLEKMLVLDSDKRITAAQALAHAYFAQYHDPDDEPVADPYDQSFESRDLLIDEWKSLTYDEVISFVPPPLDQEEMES
For test [2], the system named is PBMCs. As to the kind of experiment: IL-2 and IFN gamma release in CD3/CD28 stimulated PBMC cells. The test is classed as cell-based. As to conditions: Homo sapiens. Summed up:
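They were cultured with compound for 3 days. IL-2 and IFN-γ in supernatants were quantified by sandwich ELISA, and IC50 was derived from the dose-response curve.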

Test [3] deals with PBMCs. As to the kind of experiment: LPS-induced TNFα/IL-8 release in PBMC cells. Type of test: cell-based. As to conditions: Homo sapiens, read-out: IC50 Values for Inhibition of Cytokine Release PBMCs IL-8. Put shortly: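 Healthy-donor PBMCs, isolated by density gradient, were pretreated with compound for 2 h and then stimulated with 1 ng/mL E. coli O111:B4 LPS for 24 h at 37 °C, 5% CO2. Supernatant IL-8 and TNFα were quantified by sandwich ELISA.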

A further test concerns d-U937 cells. As to the kind of experiment: LPS-induced TNFα/IL-8 release in d-U937 cells. As to conditions: Homo sapiens. Type of test: cell-based.
The next test has as its target GSK3α (Homo sapiens (Human), UniProt P49840). As to the kind of experiment: GSK 3α enzyme inhibition (Z-LYTE FRET, Method 2). Type of test: biochemical. Summed up: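 Z-LYTE FRET: GSK3α preincubated with compound 2 h at RT, then FRET peptide and ATP added (stocks 8 μM and 40 μM) for 1 h, followed by 1 h protease development. Compound stocks 4–0.004 μg/mL; phosphorylation from coumarin/fluorescein emission ratio.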

The target of the next test is c-Src (Homo sapiens (Human), UniProt P12931). As to the kind of experiment: c-Src enzyme inhibition (Z-LYTE FRET). Type of test: biochemical. Summed up:
as §1

The mark [4] stands for this setting: 1 μg/ml, biopsies of UC patients, DMSO control = 100%.
Setting [5] is: dosed orally at either 1 or 5 mg/kg.

One may read the IC50 as the concentration that gives 50% inhibition.

Like-named read-outs stand apart in the source and are kept apart here.

Sequence of c-Src (P12931 whole entry, looked up): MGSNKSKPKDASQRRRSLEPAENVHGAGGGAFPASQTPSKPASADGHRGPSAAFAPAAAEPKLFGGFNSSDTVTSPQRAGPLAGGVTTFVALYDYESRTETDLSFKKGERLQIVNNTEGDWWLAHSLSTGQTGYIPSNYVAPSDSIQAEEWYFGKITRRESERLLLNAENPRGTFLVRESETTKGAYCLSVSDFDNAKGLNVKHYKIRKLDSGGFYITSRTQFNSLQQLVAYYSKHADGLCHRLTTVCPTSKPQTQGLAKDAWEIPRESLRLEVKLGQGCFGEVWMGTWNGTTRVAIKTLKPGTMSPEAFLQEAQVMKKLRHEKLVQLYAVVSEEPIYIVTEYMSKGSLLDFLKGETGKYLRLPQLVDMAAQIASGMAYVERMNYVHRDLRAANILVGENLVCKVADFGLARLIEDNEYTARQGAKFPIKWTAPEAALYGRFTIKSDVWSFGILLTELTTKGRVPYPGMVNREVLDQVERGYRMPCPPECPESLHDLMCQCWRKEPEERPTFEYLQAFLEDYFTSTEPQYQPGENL
Sequence of GSK3α (P49840 whole entry): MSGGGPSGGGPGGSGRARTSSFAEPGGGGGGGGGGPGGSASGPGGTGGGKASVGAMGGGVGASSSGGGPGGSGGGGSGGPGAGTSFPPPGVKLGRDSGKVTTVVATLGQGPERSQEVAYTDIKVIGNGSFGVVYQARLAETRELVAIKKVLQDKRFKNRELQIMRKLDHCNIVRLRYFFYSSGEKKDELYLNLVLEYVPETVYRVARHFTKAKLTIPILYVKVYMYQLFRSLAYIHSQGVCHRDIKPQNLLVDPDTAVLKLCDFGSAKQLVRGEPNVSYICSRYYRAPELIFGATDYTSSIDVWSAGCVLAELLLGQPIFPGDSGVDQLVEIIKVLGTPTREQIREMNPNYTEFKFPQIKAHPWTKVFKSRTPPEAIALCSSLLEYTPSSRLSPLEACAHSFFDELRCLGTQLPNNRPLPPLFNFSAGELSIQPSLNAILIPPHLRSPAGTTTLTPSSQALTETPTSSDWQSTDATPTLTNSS
Description for TNBS-induced colitis: On Day 0 of the study TNBS (200 μL) is administered intra-colonically via a plastic catheter followed by BID dosing of the vehicle, reference or test compound for 2 or 4 days. During the study animals are weighed every day and stool observations are made and recorded as a score, based on stool consistency. At the time of sacrifice on Day 2 (or Day 4) the large intestine is removed and the length and weight recorded. Sections of the colon are taken for either MPO analysis to determine neutrophil infiltration or for histopathology involving scoring to determine disease severity.

In the case of `COCCOCCOCCOCCOCCOCCOCCOc1cc(Nc2nccc(Oc3ccc(NC(=O)Nc4cc(C(C)(C)C)nn4-c4ccc(C)cc4)c4ccccc34)n2)cc(OC)c1` [Example 51, 1-(4-((2-((3-(2,5,8,11,14,17,20-Heptaoxadocosan-22-yloxy)-5-methoxyphenyl)amino)pyrimidin-4-yl)oxy)naphthalen-1-yl)-3-(3-(tert-butyl)-1-(p-tolyl)-1H-pyrazol-5-yl)urea], the “cytokine (IL-1β, IL-6 and IL-8) release compared to the DMSO control” value in test [1] (1 μg/mL, biopsies from ulcerative colitis patients) is reported as “significantly inhibited”. Also, the IL-1β release in test [1] (setting [4]) is 4 ± 2%. The molecule also returned an IL-6 release in test [1] (setting [4]) of 12 ± 15%. Further, in test [1] (setting [4]), the IL-8 release turned out to be 2 ± 1%. Besides, the LP inflammation with TNBS-induced colitis (1 mg/kg) was 3.1 ± 0.4; in the test with TNBS-induced colitis (5 mg/kg), 2.3 ± 0.4. The Ulcer grade with TNBS-induced colitis (1 mg/kg) is listed as 2.8 ± 0.5; in the test with TNBS-induced colitis (5 mg/kg), 2.6 ± 0.5. The “inflammatory cell infiltrate in the reticular and laminar propria zone” value in the test on TNBS-induced colitis (setting [5]) is given as “marked reduction”. Also, the “ulcer grade and epithelial repair compared to the vehicle control” value in the test with TNBS-induced colitis (setting [5]) was “marked improvements”. The half-maximal inhibitory concentration (IC50) against Syk worked out at 18 nM; with HT29 cells it was 1.6 nM; at p38 MAPKα, 53 nM; in the test on PBMCs [2] (read-out: IC50 Values for Inhibition of Cytokine Release PBMCs IFNγ), 1.8 nM; in the test with PBMCs [2] (read-out: IC50 Values for Inhibition of Cytokine Release PBMCs IL-2), 40.7 nM; with PBMCs [3], 1.9 nM. The half-inhibitory concentration (IC50) was 0.4 nM in the test on d-U937 cells (dU937, read-out: IC50 Values for Inhibition of Cytokine Release dU937 cells IL-8); 0.3 nM in the test with d-U937 cells (dU937, read-out: IC50 Values for Inhibition of Cytokine Release dU937 cells TNFα); 1330 nM at GSK3α; 10 nM at c-Src.

Source of the values: patent US9732063B2, “Kinase inhibitors” (RESPIVERT LIMITED, priority 2012, dated 2017).
